Results on 23 compounds are retold here after patent publication US5430062A, “Stilbene derivatives as anticancer agents” (priority 1993, dated 1995).

The test system of one data set is SKMEL-5 melanoma. The data set can be described thus: MTT cytotoxicity assay, SKMEL-5. The settings on record: Homo sapiens, SK-MEL-5, […], read-out: Cytotoxicity ED50, SKMEL-5. In general terms: Tetrazolium assays rely on reduction of a dye to a coloured formazan, in cell work by metabolically active cells.
The test system of a further data set is MCF-7 breast carcinoma. The data set can be described thus: MTT cytotoxicity assay, MCF-7. The settings on record: Homo sapiens, MCF7, […], read-out: Cytotoxicity ED50, MCF-7.
The next data set relates to MLM melanoma. The data set can be described thus: MTT cytotoxicity assay, MLM. The settings on record: […], read-out: Cytotoxicity ED50, MLM.
The subject of data set [1] is five cancer cell cultures. The data set can be described thus: MTT cytotoxicity assay, five cancer cell cultures taken together. The following applies: for cytotoxicity (in words): five cancer cell lines.
In another data set the test system is tubulin. In words: Inhibition of tubulin polymerization (turbidimetry). The data set is classed as biochemical, bovine. The following applies: for IC50: second series (Tables V-VII, IX), read-out: Inhibition of Tubulin Polymerization IC50 (±S.D.).
Data set [2] deals with HT-29 colon adenocarcinoma. The data set can be described thus: MTT cytotoxicity assay, HT-29. The settings on record: Homo sapiens, HT-29, […], read-out: Cytotoxicity ED50, HT-29.
The subject of the next data set is A-549 lung carcinoma. In words: MTT cytotoxicity assay, A-549. The following applies: Homo sapiens, A549, […], read-out: Cytotoxicity ED50, A-549.
Where [3] appears, read: read-out: cytotoxicity ED50, five cancer cell lines.

Molecules are shown by their SMILES. Read-outs that look alike come from different tables or passages of the source.

With `CCOc1ccc(CCc2cc(OC)c(OC)c(OC)c2)cc1` [17a, 1-(4-Ethoxyphenyl)-2-(3,4,5-trimethoxyphenyl)ethane], the IC50 in the data set on SKMEL-5 melanoma was 0.17 µM; with MCF-7 breast carcinoma it was 0.19 µM; in the data set on MLM melanoma, 2.7 µM; in data set [1] (read-out: cytotoxicity ED50, in at least four cell lines), below 1 µM; in the data set with tubulin, 10 µM; in data set [2], 0.18 µM. Further, the IC50 with A-549 lung carcinoma is 0.19 µM.
On to `COc1ccccc1/C=C\c1cc(OC)c(OC)c(OC)c1` [compound 5c, (Z)-1-(2-Methoxyphenyl)-2-(3,4,5-trimethoxyphenyl)ethene], for which the IC50 in the data set with SKMEL-5 melanoma worked out at 1.2 µM; in the data set with MCF-7 breast carcinoma, 1.3 µM; with MLM melanoma, 8.6 µM; in data set [2], 0.87 µM; with A-549 lung carcinoma it was 1.1 µM. Besides, the “cytotoxicity (in words)” value in data set [1] is given as “decreased the activity drastically”. Besides, the “inhibition of tubulin polymerization (in words)” value in the data set with tubulin was “low activity”.
Consider `COc1cc(/C=C\c2ccc(O[Si](C)(C)C(C)(C)C)cc2)cc(OC)c1OC` [5m, (Z)-1-[(4-t-Butyldimethylsilyloxy)phenyl]-2-(3,4,5-trimethoxyphenyl)ethene], for which the IC50 was 7.59 µM in the data set on SKMEL-5 melanoma; 7.29 µM with MCF-7 breast carcinoma; 17.2 µM with MLM melanoma; 10.6 µM in data set [2]; 11 µM in the data set on A-549 lung carcinoma. The “cytotoxicity (in words)” value in data set [1] is “decreased the activity drastically”.
With `COc1cc(/C=C\c2ccc(C(C)C)cc2)cc(OC)c1OC` [compound 15f, (Z)-[4-(2-Propyl)phenyl]-2-(3,4,5-trimethoxyphenyl)ethene], the IC50 with SKMEL-5 melanoma is 0.00047 µM; in the data set with MCF-7 breast carcinoma, 0.0014 µM; with MLM melanoma, 0.07 µM; in data set [1] (read-out: cytotoxicity ED50) it was 0.00047 to 0.07 µM; in data set [2] it was 0.0024 µM; with A-549 lung carcinoma, 0.0066 µM.
Regarding `COc1ccc(/C=C\c2ccc(OC)c(OC)c2)cc1` [15h, (Z)-(4-Methoxyphenyl)-2-(3,4-dimethoxyphenyl)ethene], the IC50 (in the data set with SKMEL-5 melanoma; in the data set on MCF-7 breast carcinoma; in the data set on MLM melanoma; in data set [1] (setting [3]); in data set [2]; with A-549 lung carcinoma) was above 25 µM each time.
For the compound `COc1cc(/C=C\c2ccc([N+](=O)[O-])cc2)cc(OC)c1OC` [5l, (Z)-1-(4-Nitrophenyl)-2-(3,4,5-trimethoxyphenyl)ethene], the IC50 (in the data set with SKMEL-5 melanoma; in the data set on MCF-7 breast carcinoma; with MLM melanoma; in data set [2]; in the data set on A-549 lung carcinoma) was above 25 µM in each case. Besides, the “cytotoxicity (in words)” value in data set [1] was “decreased the activity drastically”.
Take `COc1cc(CCc2ccc(N)cc2)cc(OC)c1OC` [compound 8z, 1-(4-Aminophenyl)-2-(3,4,5-trimethoxyphenyl)ethane]: the IC50 in the data set on SKMEL-5 melanoma was 12.7 µM; with MCF-7 breast carcinoma it was 11.9 µM; in the data set on MLM melanoma, above 25 µM; in data set [2], 24.6 µM; with A-549 lung carcinoma, 12.2 µM. For the same compound, the “inhibition of tubulin polymerization (in words)” value in the data set with tubulin is “lower activity”.
Take `COc1ccc(Cc2cc(OC)c(OC)c(OC)c2)cc1` [compound 29, 4-Methoxyphenyl-(3,4,5-trimethoxyphenyl)methane]: the IC50 in the data set on SKMEL-5 melanoma amounted to 0.012 µM; in the data set on MCF-7 breast carcinoma, 0.019 µM; in the data set on MLM melanoma it was 0.13 µM; in the data set on tubulin, 15 µM; in data set [2] it was 0.013 µM; with A-549 lung carcinoma, 0.15 µM.
For the compound `COc1cc(/C=C\c2ccncc2)cc(OC)c1OC` [5i, (Z)-1-(4-Pyridyl)-2-(3,4,5-trimethoxyphenyl)ethene], the IC50 in the data set with SKMEL-5 melanoma was 14.4 µM; in the data set with MCF-7 breast carcinoma it was 17 µM; in the data set with MLM melanoma, above 25 µM; in data set [1] (setting [3]), above 10 µM; in data set [2], 12.9 µM; in the data set on A-549 lung carcinoma it was 14.2 µM.
Take `CCOc1ccc(/C=C\c2cc(OC)c(OC)c(OC)c2)cc1` [compound 15a, (Z)-1-(4-Ethoxyphenyl)-2-(3,4,5-trimethoxyphenyl)ethene]: the IC50 came to 0.0025 µM with SKMEL-5 melanoma; 0.096 µM with MCF-7 breast carcinoma; 0.029 µM in the data set with MLM melanoma; 2.7 µM in the data set with tubulin; 0.0018 µM in data set [2]; 0.0016 µM in the data set on A-549 lung carcinoma.
Take `COc1cc(/C=C\c2cccnc2)cc(OC)c1OC` [5j, (Z)-1-(3-Pyridyl)-2-(3,4,5-trimethoxyphenyl)ethene]: the IC50 is 6 µM in the data set with SKMEL-5 melanoma; 14.7 µM in the data set with MCF-7 breast carcinoma; above 25 µM in the data set with MLM melanoma; above 10 µM in data set [1] (setting [3]); 9.8 µM in data set [2]; 13.7 µM in the data set on A-549 lung carcinoma.
For the compound `COc1ccc(CC2NCCc3c2cc(OC)c(OC)c3OC)cc1` (centres unmarked) [compound 38, 1-(4'-Methoxybenzyl)-5,6,7-trimethoxy-1,2,3,4-tetrahydroisoquinoline], the IC50 with SKMEL-5 melanoma was above 25 µM; in the data set with MCF-7 breast carcinoma it was above 25 µM; in the data set with MLM melanoma, above 25 µM; in the data set on tubulin it was above 40 µM; in data set [2], 20.2 µM; in the data set with A-549 lung carcinoma, 19.3 µM.
Consider `COc1ccc(/C=C\c2ccc(OC)c(OC)c2OC)cc1` [5d, (Z)-1-(4-Methoxyphenyl)-2-(2,3,4-trimethoxy-phenyl)ethene], for which the IC50 in the data set on SKMEL-5 melanoma came to 1.1 µM; in the data set on MCF-7 breast carcinoma, 0.23 µM; in the data set with MLM melanoma, 10.9 µM; in data set [2], 1 µM; with A-549 lung carcinoma, 0.97 µM. The “inhibition of tubulin polymerization (class)” value with tubulin was “inactive”.
Regarding `CCc1ccc(CCc2cc(OC)c(OC)c(OC)c2)cc1` [17e, 1-(4-Ethylphenyl)-2-(3,4,5-trimethoxyphenyl)ethane], the IC50 was 0.047 µM in the data set with SKMEL-5 melanoma; 0.16 µM in the data set on MCF-7 breast carcinoma; 2.7 µM in the data set with MLM melanoma; 18 µM in the data set on tubulin; 0.016 µM in data set [2]; 0.088 µM in the data set with A-549 lung carcinoma.
Turning to `COc1cc(/C=C/c2ccc(SC)cc2)cc(OC)c1OC` [16c], the IC50 in the data set with SKMEL-5 melanoma was 0.28 µM; in the data set with MCF-7 breast carcinoma it was 0.059 µM; with MLM melanoma, 7.3 µM; in data set [1] (read-out: cytotoxicity ED50, in at least three cell lines), around 0.1 µM; in data set [2] it was 0.083 µM; with A-549 lung carcinoma, 0.47 µM.
Turning to `COc1cc(/C=C/c2ccc(C(C)C)cc2)cc(OC)c1OC` [16f, (E)-[4-(2-Propyl)phenyl]-2-(3,4,5-trimethoxyphenyl)ethene], the IC50 was 11.1 µM with SKMEL-5 melanoma; 18.4 µM with MCF-7 breast carcinoma; above 25 µM with MLM melanoma; around 0.1 µM in data set [1] (read-out: cytotoxicity ED50); 6.8 µM in data set [2]; 9.8 µM in the data set with A-549 lung carcinoma.
In the case of `COc1ccc(/C=C\c2cc(OC)c(OC(C)=O)c(OC)c2)cc1` [15l, (Z)-1-(4-Acetoxy-3,5-dimethoxyphenyl)-2-(4-methoxyphenyl)ethene], the IC50 in the data set on SKMEL-5 melanoma is 0.6 µM; in the data set on MCF-7 breast carcinoma, above 25 µM; in the data set on MLM melanoma, above 25 µM; in the data set with tubulin, 24 µM; in data set [2], 8.7 µM; in the data set on A-549 lung carcinoma it was 21.5 µM.
As for `COc1cccc(/C=C(/C(=O)O)c2cc(OC)c(OC)c(OC)c2)c1` [compound 23b, (E)-3-(3-Methoxyphenyl)-2-(3,4,5-trimethoxyphenyl)-prop-2-enoic acid], the IC50 with SKMEL-5 melanoma was 0.05 µM; in the data set with MCF-7 breast carcinoma, above 25 µM; in the data set with MLM melanoma, above 25 µM; in the data set on tubulin, above 40 µM; in data set [2] it was 0.12 µM; in the data set with A-549 lung carcinoma, 0.025 µM.
On to `CCCOc1ccc(/C=C\c2cc(OC)c(OC)c(OC)c2)cc1` [compound 15b, (Z)-1-(4-n-Propoxyphenyl)-2-(3,4,5-trimethoxyphenyl)-thene], for which the IC50 was 0.014 µM in the data set on SKMEL-5 melanoma; 0.66 µM in the data set with MCF-7 breast carcinoma; 0.065 µM in the data set with MLM melanoma; 6 µM in the data set with tubulin; 0.028 µM in data set [2]; 0.039 µM with A-549 lung carcinoma.
As to `CCOc1ccc(/C=C/c2cc(OC)c(OC)c(OC)c2)cc1` [16a], the IC50 is 1.17 µM in the data set on SKMEL-5 melanoma; 0.75 µM in the data set with MCF-7 breast carcinoma; 0.22 µM in the data set with MLM melanoma; around 0.1 µM in data set [1] (read-out: cytotoxicity ED50); 1.49 µM in data set [2]; 0.17 µM in the data set on A-549 lung carcinoma.
In the case of `COc1cc(/C=C\c2ccccn2)cc(OC)c1OC` [5k, (Z)-1-(2-Pyridyl)-2-(3,4,5-trimethoxyphenyl)ethene], the IC50 is above 25 µM in the data set with SKMEL-5 melanoma; above 25 µM with MCF-7 breast carcinoma; above 25 µM with MLM melanoma; above 10 µM in data set [1] (setting [3]); above 25 µM in data set [2]; above 25 µM in the data set on A-549 lung carcinoma.
On to `COc1cc(/C=C\c2ccc(O)cc2)cc(OC)c1OC` [compound 5o, (Z)-1-(4-Hydroxyphenyl)-2-(3,4,5-trimethoxyphenyl)ethene], for which the IC50 with SKMEL-5 melanoma stood at 2.27 µM; in the data set with MCF-7 breast carcinoma, 5.7 µM; with MLM melanoma it was 12.6 µM; in data set [2], 1.75 µM; with A-549 lung carcinoma it was 12.7 µM. The “cytotoxicity (in words)” value in data set [1] was “decreased the activity drastically”.
As for `COc1cc2ccc3c(OC)cccc3c2c(OC)c1OC` [32d, 2,3,4,8-Tetramethoxyphenanthrene], the IC50 is 12 µM in the data set on SKMEL-5 melanoma; 14.6 µM in the data set on MCF-7 breast carcinoma; above 25 µM in the data set on MLM melanoma; above 40 µM in the data set on tubulin; 9.3 µM in data set [2]; above 25 µM in the data set with A-549 lung carcinoma.
